Source: US11739122B2, “Glycopeptide antibiotic compounds, methods for producing the same, and uses thereof” (Academia Sinica, priority 2019, dated 2023)
Converted amounts (≈) assume the structure as drawn.

Assays:
Assay in all cases: MIC, broth microdilution
VRE ATCC 700425 (vanC) = assay type: cell-based, enterococci; conditions: VRE ATCC 700425 (vanC)
Description: (§1) Determination of Minimal Inhibitory Concentration (MIC) for Vancomycin, Teicoplanin and Tei-Analogs Versus Selected Strains
(§2) MICs were determined by the broth microdilution method. Specifically, 12 Colonies of the test strain were picked up from 18-24 hour agar cultures and freshly inoculated into broth mediums until reaching the turbidity of a 0.5 McFarland standard. The broth culture was adjusted with broth medium to approximately 1×10^8 CFUmL^−1. […] The plates were incubated in 37° C. for 18-24 hours and monitored for the wells of the positive control, where cells grew, and the wells of the negative control, where wells should not grow. The MIC value was determined for the concentration of a test compound, at which there was no visible growth in the well.

VRE ATCC 700802 (vanB) = assay type: cell-based, enterococci; conditions: VRE ATCC 700802 (vanB)
Description: as §1, §2

VRE ATCC 700221 (vanA) = assay type: cell-based, enterococci; conditions: VRE ATCC 700221 (vanA)
Description: as §1, §2

E. faecalis ATCC 29302 = assay type: cell-based; conditions: EF ATCC 29302
Description: as §1, §2

MRSA ATCC 700789 VRSA = assay type: cell-based, Staphylococcus aureus; conditions: MRSA ATCC 700789 VRSA
Description: as §1, §2

MRSA ATCC BAA-44 = assay type: cell-based, Staphylococcus aureus; conditions: MRSA ATCC BAA-44
Description: as §1, §2

MRSA ATCC 700787 VRSA = assay type: cell-based, Staphylococcus aureus; conditions: MRSA ATCC 700787 VRSA
Description: as §1, §2

S. aureus ATCC 29213 = assay type: cell-based, Staphylococcus aureus; conditions: SA ATCC 29213
Description: as §1, §2

MRSA ATCC BAA-39 = assay type: cell-based, Staphylococcus aureus; conditions: MRSA ATCC BAA-39
Description: as §1, §2

MRSA ATCC 700698 hVISA = assay type: cell-based, Staphylococcus aureus; conditions: MRSA ATCC 700698 hVISA
Description: as §1, §2

MRSA ATCC BAA-38 = assay type: cell-based, Staphylococcus aureus; conditions: MRSA ATCC BAA-38
Description: as §1, §2

MRSA ATCC 43300 = assay type: cell-based, Staphylococcus aureus; conditions: MRSA ATCC 43300
Description: as §1, §2

A. baumannii ATCC 19606 = assay type: cell-based, Acinetobacter baumannii; conditions: for MIC on AB: A. baumannii ATCC 19606
Description: as §1, §2

[1] = A. baumannii ATCC 19606, Table 3, first figure of cell
[2] = A. baumannii ATCC 19606, Table 3, second figure of cell

Compound | MIC (VRE ATCC 700425 (vanC)) [µg/mL] | MIC (VRE ATCC 700802 (vanB)) [µg/mL] | MIC (VRE ATCC 700221 (vanA)) [µg/mL] | MIC (E. faecalis ATCC 29302) [µg/mL] | MIC (MRSA ATCC 700789 VRSA) [µg/mL] | MIC (MRSA ATCC BAA-44) [µg/mL] | MIC (MRSA ATCC 700787 VRSA) [µg/mL] | MIC (S. aureus ATCC 29213) [µg/mL] | MIC (MRSA ATCC BAA-39) [µg/mL] | MIC (MRSA ATCC 700698 hVISA) [µg/mL] | MIC (MRSA ATCC BAA-38) [µg/mL] | MIC (MRSA ATCC 43300) [µg/mL] | MIC on AB (A. baumannii ATCC 19606) [µg/mL] | MIC (A. baumannii ATCC 19606; [1]) [µM] | MIC (A. baumannii ATCC 19606; [2]) [µg/mL]
CCCCCCCC(=O)N[C@H]1[C@H](O[C@@H]2c3ccc(c(Cl)c3)Oc3cc4cc(c3O)Oc3ccc(cc3Cl)C[C@H]3NC(=O)[C@H](N(C)C)c5ccc(O)c(c5)Oc5cc(O)cc(c5)[C@H](NC3=O)C(=O)N[C@H]4C(=O)N[C@H]3C(=O)N[C@@H]2C(=O)N[C@H](C(=O)O)c2cc(O)cc(O)c2-c2cc3ccc2O)O[C@H](CO)[C@@H](O)[C@@H]1O [Compound 20] | 1 (≈ 0.66 µM) | 0.5 (≈ 0.33 µM) | >16 | 0.25 (≈ 0.165 µM) | 0.5 (≈ 0.33 µM) | 0.016 (≈ 0.0106 µM) | 0.016 (≈ 0.0106 µM) | 0.016 (≈ 0.0106 µM) | 0.016 (≈ 0.0106 µM) | 0.016 (≈ 0.0106 µM) | 0.016 (≈ 0.0106 µM) | 0.063 (≈ 0.0416 µM) |  |  | 
C#CCCC(=O)N[C@H]1[C@H](O[C@@H]2c3ccc(c(Cl)c3)Oc3cc4cc(c3O)Oc3ccc(cc3Cl)C[C@H]3NC(=O)[C@H](N)c5ccc(O)c(c5)Oc5cc(O)cc(c5)[C@H](NC3=O)C(=O)N[C@H]4C(=O)N[C@H]3C(=O)N[C@@H]2C(=O)N[C@H](C(=O)O)c2cc(O)cc(O)c2-c2cc3ccc2O)O[C@H](CO)[C@@H](O)[C@@H]1O [Compound 13] | 4 (≈ 2.78 µM) | 4 (≈ 2.78 µM) | >16 | 0.5 (≈ 0.347 µM) | 1 (≈ 0.694 µM) | 0.031 (≈ 0.0215 µM) | 0.063 (≈ 0.0437 µM) | 0.063 (≈ 0.0437 µM) | 0.063 (≈ 0.0437 µM) | 0.063 (≈ 0.0437 µM) | 0.063 (≈ 0.0437 µM) | 0.125 (≈ 0.0868 µM) |  |  | 
CCCCCCCC(=O)NC1C(OC2c3ccc(c(Cl)c3)Oc3cc4cc(c3O)Oc3ccc(cc3Cl)CC3NC(=O)C(N)c5ccc(O)c(c5)Oc5cc(O)cc(c5)C(NC3=O)C(=O)NC4C(=O)NC3C(=O)NC2C(=O)NC(C(=O)O)c2cc(O)cc(OC4OC(CO)C(O)C(O)C4O)c2-c2cc3ccc2O)OC(CO)C(O)C1O (stereo not drawn) [Compound 26] | 1 (≈ 0.607 µM) | 1 (≈ 0.607 µM) | >16 | 0.5 (≈ 0.303 µM) | 0.5 (≈ 0.303 µM) | 0.016 (≈ 0.00971 µM) | 0.5 (≈ 0.303 µM) | 0.016 (≈ 0.00971 µM) | 0.016 (≈ 0.00971 µM) | 0.031 (≈ 0.0188 µM) | 0.125 (≈ 0.0758 µM) | 0.125 (≈ 0.0758 µM) |  |  | 
CN(C)[C@H]1C(=O)N[C@@H]2Cc3ccc(c(Cl)c3)Oc3cc4cc(c3O)Oc3ccc(cc3Cl)[C@@H](O[C@@H]3O[C@H](CO)[C@@H](O)[C@H](O)[C@H]3NC(=O)CCCCCCCO)[C@@H]3NC(=O)[C@H](NC(=O)[C@@H]4NC(=O)[C@@H](NC2=O)c2cc(O)cc(c2)Oc2cc1ccc2O)c1ccc(O)c(c1)-c1c(O)cc(O)cc1[C@@H](C(=O)O)NC3=O [Compound 21] | 8 (≈ 5.23 µM) | 8 (≈ 5.23 µM) | >16 | 1 (≈ 0.653 µM) |  |  | 0.125 (≈ 0.0817 µM) | 0.125 (≈ 0.0817 µM) |  | 0.063 (≈ 0.0412 µM) |  |  | 152.84 (≈ 99.9 µM) | 100 | 152.84
N[C@H]1C(=O)N[C@@H]2Cc3ccc(c(Cl)c3)Oc3cc4cc(c3O)Oc3ccc(cc3Cl)[C@@H](O[C@@H]3O[C@H](CO)[C@@H](O)[C@H](O)[C@H]3NC(=O)CCCCCc3ccccc3)[C@@H]3NC(=O)[C@H](NC(=O)[C@@H]4NC(=O)[C@@H](NC2=O)c2cc(O)cc(c2)Oc2cc1ccc2O)c1ccc(O)c(c1)-c1c(O)cc(O)cc1[C@@H](C(=O)O)NC3=O [Compound 16] | 1 (≈ 0.652 µM) | 0.25 (≈ 0.163 µM) | >16 | 0.25 (≈ 0.163 µM) | 0.5 (≈ 0.326 µM) | 0.016 (≈ 0.0104 µM) | 0.125 (≈ 0.0815 µM) | 0.125 (≈ 0.0815 µM) | 0.063 (≈ 0.0411 µM) | 0.016 (≈ 0.0104 µM) | 0.031 (≈ 0.0202 µM) | 0.063 (≈ 0.0411 µM) |  |  | 
N[C@H]1C(=O)N[C@@H]2Cc3ccc(c(Cl)c3)Oc3cc4cc(c3O)Oc3ccc(cc3Cl)[C@@H](O[C@@H]3O[C@H](CO)[C@@H](O)[C@H](O)[C@H]3NC(=O)CCCCCCCCCCCO)[C@@H]3NC(=O)[C@H](NC(=O)[C@@H]4NC(=O)[C@@H](NC2=O)c2cc(O)cc(c2)Oc2cc1ccc2O)c1ccc(O)c(c1)-c1c(O)cc(O)cc1[C@@H](C(=O)O)NC3=O [Compound 19] | 1 (≈ 0.642 µM) | 0.5 (≈ 0.321 µM) | >16 | 0.25 (≈ 0.16 µM) | 0.25 (≈ 0.16 µM) | 0.016 (≈ 0.0103 µM) | 0.016 (≈ 0.0103 µM) | 0.016 (≈ 0.0103 µM) | 0.016 (≈ 0.0103 µM) | 0.016 (≈ 0.0103 µM) | 0.031 (≈ 0.0199 µM) | 0.063 (≈ 0.0404 µM) |  |  | 
N[C@H]1C(=O)N[C@@H]2Cc3ccc(c(Cl)c3)Oc3cc4cc(c3O)Oc3ccc(cc3Cl)[C@@H](O[C@@H]3O[C@H](CO)[C@@H](O)[C@H](O)[C@H]3NC(=O)CCc3ccccc3)[C@@H]3NC(=O)[C@H](NC(=O)[C@@H]4NC(=O)[C@@H](NC2=O)c2cc(O)cc(c2)Oc2cc1ccc2O)c1ccc(O)c(c1)-c1c(O)cc(O)cc1[C@@H](C(=O)O)NC3=O [Compound 15] | 1 (≈ 0.67 µM) | 0.5 (≈ 0.335 µM) | >16 | 0.25 (≈ 0.168 µM) | 0.5 (≈ 0.335 µM) | 0.016 (≈ 0.0107 µM) | 0.031 (≈ 0.0208 µM) | 0.031 (≈ 0.0208 µM) | 0.016 (≈ 0.0107 µM) | 0.016 (≈ 0.0107 µM) | 0.016 (≈ 0.0107 µM) | 0.031 (≈ 0.0208 µM) |  |  | 
CN(C)[C@H]1C(=O)N[C@@H]2Cc3ccc(c(Cl)c3)Oc3cc4cc(c3O)Oc3ccc(cc3Cl)[C@@H](O[C@@H]3O[C@H](CO)[C@@H](O)[C@H](O)[C@H]3NC(=O)CCCCCCC[N+](C)(C)C)[C@@H]3NC(=O)[C@H](NC(=O)[C@@H]4NC(=O)[C@@H](NC2=O)c2cc(O)cc(c2)Oc2cc1ccc2O)c1ccc(O)c(c1)-c1c(O)cc(O)cc1[C@@H](C(=O)O)NC3=O [Compound 23] | 2 | 1 | >16 | 0.25 |  |  | 0.031 | 0.031 |  | 0.031 |  |  | 78.52 | 50 | 78.52
NCCC[C@H](N)CC(=O)N[C@@H]1[C@H](O)[C@@H](OC(N)=O)[C@@H](CO)O[C@H]1NC1=N[C@@H]2C(=O)NC[C@@H](O)[C@H]2N1 [streptothricin F, reference compound] |  |  |  |  |  |  |  |  |  |  |  |  |  | 12.5 | 6.28
CC(=O)NC1C(OC2c3ccc(c(Cl)c3)Oc3cc4cc(c3OC3OC(CO)C(O)C(O)C3NC(=O)CCCCCCCNC(=N)N)Oc3ccc(cc3Cl)CC3NC(=O)C(N(C)C)c5ccc(O)c(c5)Oc5cc(O)cc(c5)C(NC3=O)C(=O)NC4C(=O)NC3C(=O)NC2C(=O)NC(C(=O)O)c2cc(O)cc(OC4OC(CO)C(O)C(O)C4O)c2-c2cc3ccc2O)OC(CO)C(O)C1O (stereo not drawn) [Compound 27] |  |  |  |  |  |  |  |  |  |  |  |  |  | 50 | 96.73
CN(C)[C@H]1C(=O)N[C@@H]2Cc3ccc(c(Cl)c3)Oc3cc4cc(c3O)Oc3ccc(cc3Cl)[C@@H](O[C@@H]3O[C@H](CO)[C@@H](O)[C@H](O)[C@H]3NC(=O)CCCCCCCN)[C@@H]3NC(=O)[C@H](NC(=O)[C@@H]4NC(=O)[C@@H](NC2=O)c2cc(O)cc(c2)Oc2cc1ccc2O)c1ccc(O)c(c1)-c1c(O)cc(O)cc1[C@@H](C(=O)O)NC3=O [Compound 22] | 2 (≈ 1.31 µM) | 1 (≈ 0.654 µM) | >16 | 1 (≈ 0.654 µM) |  |  | 0.063 (≈ 0.0412 µM) | 0.031 (≈ 0.0203 µM) |  | 0.125 (≈ 0.0817 µM) |  |  |  | 25 | 38.19
CN(C)[C@H]1C(=O)N[C@@H]2Cc3ccc(c(Cl)c3)Oc3cc4cc(c3O)Oc3ccc(cc3Cl)[C@@H](O[C@@H]3O[C@H](CO)[C@@H](O)[C@H](O)[C@H]3NC(=O)CCCCCCCNC(=N)NC(=N)N)[C@@H]3NC(=O)[C@H](NC(=O)[C@@H]4NC(=O)[C@@H](NC2=O)c2cc(O)cc(c2)Oc2cc1ccc2O)c1ccc(O)c(c1)-c1c(O)cc(O)cc1[C@@H](C(=O)O)NC3=O [Compound 25, r1,Me2-r6,C8-diguanidino-Tei] |  |  |  |  |  |  |  |  |  |  |  |  | 39.24 (≈ 24.3 µM) | 25 | 40.29
